Tests used:
Lemna paucicostata = assay: Herbicidal action: growth inhibition of duck weed (Lemna); type: in vivo; settings: Lemna aequinoctialis, increase in leaf area after 8-10 days, 25° C., permanent light, read-out: Growth inhibition (% relative to the control)
Procedure: The herbicidal action of the compounds according to the invention is investigated using the representative test model below. The effect of the test substances on the growth of duck weed is determined by the following method:
The duct weed Lemna paucicostata was grown under sterile conditions and 250 ml glass vessels containing 100 ml of inorganic nutrient solution and supplemented with 1% sucrose, as described by Grossmann et al., Pesticide Science 35, (1992), 283-289. At the beginning of the test, 150 μl of a solution of active compound in acetone (stock solution: 100-fold concentrated) were pipetted into Petri dishes (diameter 6 cm, height 1.5 cm; Greiner, Frickenhausen) containing 15 ml of nutrient solution. (without added sucrose). Only the solvent component of the active compound solution was added to the nutrient solution for the control tests. Then, 4 Lemna plants were introduced into each dish, the dishes were covered with lids and incubated under permanent light conditions at 25° C. After 8-10 days, the increase in leaf area was determined using an imaging apparatus (Imago, Compulog Computer Syst., Böblingen) as growth parameter, and this was used to calculate the growth inhibition as a percentage relative to the control.

Plasmopara viticola = assay: Fungicidal action: activity against Plasmopara viticola on grapevines (persistency); type: in vivo; settings: grapevines c.v. Müller-Thurgau, inoculated 7 days after spraying, undersides of leaves assessed visually, untreated control 90
Source text: Activity Against Plasmopara viticola
Leaves of potted grapevines c.v. “Müller-Thurgau” were sprayed to run off point with an aqueous preparation of active compound which had been prepared using a stock solution comprising 10% of active compound, 63% of cyclohexanone and 27% of emulsifier. In order to be able to assess the persistency of the substances, the plants were kept for 7 days in a greenhouse after the spray coating had dried on. Only then were the leaves inoculated with an aqueous zoospore suspension of Plasmopara viticola. The grapevines were then initially kept in a water vapor-saturated chamber at 24° C. for 48 hours and then in a greenhouse at 20 and 30° C. for 5 days. After this period of time, the plants were once more kept in a humid chamber for 16 hours to promote sporangiophore eruption. The extent of the infection on the undersides of the leaves was then determined visually.

| SMILES | inhibition at 1 µM (Lemna paucicostata; concentration 1 μmolar) | inhibition at 10 µM (Lemna paucicostata; concentration 10 μmolar) | inhibition at 100 µM (Lemna paucicostata; concentration 100 μmolar) | % infection of the leaves after application of an aqueous preparation containing 250 ppm of active compound (Plasmopara viticola) |
| --- | --- | --- | --- | --- |
| N#CC(C(=O)Nc1ccc(Cl)c(Cl)c1)c1ccccc1 (stereo not shown) [A, N-(3,4-dichlorophenyl)-2-cyano-2-phenylacetamide] | 40% | 93% | 100% |  |
| N#CC(C(=O)Nc1cccc(Cl)c1)c1ccccc1 (stereo not shown) [No. 2, N-(3-chlorophenyl)-2-cyano-2-phenylacetamide] |  |  |  | 0% |

Reference: patent US6613931B1 (priority 1999, dated 2003)
